# Experimental data: patent publication US6348445B1, “Biologically active peptides with reduced toxicity in animals and a method for preparing same” (priority 1992, dated 2002)
# *1 amine or outer side, *2 acyl side, *3 side chain or, on linkers, in order; H or OH if unused. Where a SMILES comes first, the peptide text is derived from it. [ ]: non-standard residue; d: D form. The star is where a group is joined. X1 = O=C([C@H](CCCCNCS(=O)(=O)O)N[*:1])[*:2]; Octanoyl = CCCCCCCC(=O)*
# What was measured:
# C. albicans ATCC 90028 = assay type: cell-based; details: ATCC 90028
# Protocol: The procedure for the anti-bacterial assay is based upon the guidelines of the National Committee for Clinical Laboratory Standards, Document M7-T2, Volume 8, No. 8, 1988, which document is entirely incorporated herein by reference.
# Stock solutions of peptides, with and without the appropriate substitutions, were prepared at a concentration of 512 μg/ml in sterile deionized distilled water and stored at −70° C.
# The stock peptide solution was diluted in serial dilutions (1:2) down the wells of a microtiter plate so that the final concentrations of peptides in the wells were 0.25, 0.50, 1, 2, 4, 8, 16, 32, 64, 128 and 256 μg/ml. 1-5×10^5 CFUs/ml of either S. aureus ATCC 25923, E. coli ATCC 25922, P. aeruginosa ATCC 27853, or C. albicans, were added to the wells in full strength Mueller Hinton broth (BBL 11443) from a mid-log culture. The inoculum was standardized spectrophotometrically at 600 nm and was verified by colony counts. The plates were incubated for 16-20 hours at 37° C., and the minimal inhibitory concentration (MIC) for each peptide was determined. Minimal inhibitory concentration is defined as the lowest concentration of peptide which produces a clear well in the microtiter plate. The minimal inhibitory concentration of each of the peptides with and/or without the appropriate substitutions is given in Table I below.
# (§1) The in vitro anti-microbial activities of the methane sulfonate derivatives were determined according to the methods described in Examples 1 and 2. The activities against ATCC strains of S. aureus, E. coli, P. aeruginosa, and C. albicans, and the hemolysis of red blood cells were compared to the parent compound (Table IV). The activities for Compound 843 (Oct-SEQ ID NO:143) methane sulfonate against clinical strains of P. aeruginosa isolated from cystic fibrosis patients were compared to the parent compound (Table V). The activity for Compound 469 (Oct-SEQ ID NO:27) methane sulfonate against P. gingivalis was compared to the parent compound (Table VI).
# S. aureus ATCC 29213 = assay type: cell-based; details: ATCC 29213
# [1] = system: E. coli ATCC strain 25922; experiment: Minimal Inhibitory Concentration, microtiter broth dilution; assay type: cell-based; details: ATCC strain 25922
# How it was run: (§2)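 Peptides serially diluted 1:2 to final 0.25–256 μg/ml in Mueller Hinton broth, inoculated with 1-5×10^5 CFUs/ml from mid-log culture. Incubated 16-20 hours at 37° C. MIC = lowest peptide concentration giving a clear well.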
# [2] = system: P. aeruginosa strain ATCC 27853; assay type: cell-based; details: ATCC 27853
# How it was run: as §2
# C. albicans = assay type: cell-based
# How it was run: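 Peptides serially diluted 1:2 to final 0.25–256 μg/ml; inoculum 1-5×10^5 CFU/ml from mid-log culture in full-strength Mueller Hinton broth. Incubated 16-20 h at 37° C. MIC taken as lowest peptide concentration giving a clear well.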
# S. mutans = experiment: anaerobic anti-microbial susceptibility test (MIC); assay type: cell-based; parameters: unit not given here; details: 24-48 hours
# A. viscosus = experiment: anaerobic anti-microbial susceptibility test (MIC); assay type: cell-based; details: 24-48 hours
# red blood cells = experiment: hemolysis of red blood cells; assay type: cell-based
# Protocol: as §1
SMILES,MIC C. albicans ATCC 90028 (C. albicans ATCC 90028) [µg/mL],MIC S. aureus ATCC 29213 (S. aureus ATCC 29213) [µg/mL],MIC E. coli ATCC 25922 [1] [µg/mL],MIC P. gingivalis ATTC 33277 (P. gingivalis) [µg/mL],MIC P. aeruginosa ATCC 27853 [2] [µg/mL],Minimal Inhibitory Concentration CA (C. albicans) [µg/mL],MIC S. mutans (S. mutans),Minimal Inhibitory Concentration E [1] [µg/mL],"MIC P. gingivalis (strain) 9-14K-1 (P. gingivalis; anaerobic, 24-48 hours) [μl/ml]","MIC P. gingivalis (strain) 381 (P. gingivalis; anaerobic, 24-48 hours) [μl/ml]","MIC P. gingivalis (strain) 450 (P. gingivalis; anaerobic, 24-48 hours) [μl/ml]","MIC P. gingivalis (strain) A7A1-28 (P. gingivalis; anaerobic, 24-48 hours) [μl/ml]","MIC P. gingivalis (strain) FAY-19M-1 (P. gingivalis; anaerobic, 24-48 hours) [μl/ml]",MIC A. viscos (A. viscosus) [μl/ml],% Hemolysis (500 μg/ml) (red blood cells) [%],Minimal Inhibitory Concentration P [2] [µg/mL]
CCCCCCCC(=O)N[C@@H](CCCCNCS(=O)(=O)O)C(=O)N[C@H](C(=O)N[C@@H](C)C(=O)NCC(=O)N[C@@H](CCCCNCS(=O)(=O)O)C(=O)N[C@H](C(=O)N[C@@H](C)C(=O)N[C@@H](CCCCNCS(=O)(=O)O)C(=O)N[C@H](C(=O)N[C@@H](C)C(=O)NCC(=O)N[C@@H](CCCCNCS(=O)(=O)O)C(=O)N[C@H](C(=O)N[C@@H](C)C(=O)N[C@@H](CCCCNCS(=O)(=O)O)C(=O)N[C@H](C(=O)N[C@@H](C)C(=O)NCC(=O)N[C@@H](CCCCNCS(=O)(=O)O)C(=O)N[C@H](C(=O)N[C@@H](C)C(N)=O)[C@@H](C)CC)[C@@H](C)CC)[C@@H](C)CC)[C@@H](C)CC)[C@@H](C)CC)[C@@H](C)CC [Compound 1662] (Octanoyl-[X1]IAG[X1]IA[X1]IAG[X1]IA[X1]IAG[X1]IA-NH2),64,4,8,8,32,–,–,–,–,–,–,–,–,–,–,–
"CCCCCCCC(=O)N[C@@H](CCCCN)C(=O)N[C@H](C(=O)N[C@@H](C)C(=O)NCC(=O)N[C@@H](CCCCN)C(=O)N[C@H](C(=O)N[C@@H](C)C(=O)N[C@@H](CCCCN)C(=O)N[C@H](C(=O)N[C@@H](C)C(=O)NCC(=O)N[C@@H](CCCCN)C(=O)N[C@H](C(=O)N[C@@H](C)C(=O)N[C@@H](CCCCN)C(=O)N[C@H](C(=O)N[C@@H](C)C(=O)NCC(=O)N[C@@H](CCCCN)C(=O)N[C@H](C(=O)N[C@@H](C)C(N)=O)[C@@H](C)CC)[C@@H](C)CC)[C@@H](C)CC)[C@@H](C)CC)[C@@H](C)CC)[C@@H](C)CC [Oct-(SEQ ID NO: 27)-NH2, (Oct-KIAGKIA)3-NH2)] (Octanoyl-KIAGKIAKIAGKIAKIAGKIA-NH2)",64,2,4,4,4 to 8,16,16,2,4,16,16,4,4,16,100,4
